According to US9458172B2, “Pyridinyl and pyrimidinyl sulfoxide and sulfone derivatives” (priority 2012, dated 2016):
Like-named read-outs stand apart in the source and are kept apart here.

Key:
A2780 cells = experiment: In-Vitro Cell Proliferation Assay (SRB)
NAMPT = NAMPT (Homo sapiens (Human), UniProt P43490); experiment: Biochemical Inhibition Assay (NAMPT enzymatic reaction, NMN quantified by mass spectrometry); conditions: 33 nM recombinant His-tagged NAMPT, 1 μM NAM, 30 min at rt
Description: Assay 1: Biochemical Inhibition Assay
NAMPT protein purification. Recombinant His-tagged NAMPT was produced in E. coli cells, purified over a Ni column, and further purified over a size-exclusion column by XTAL Biostructures.
The NAMPT Enzymatic Reaction. The NAMPT enzymatic reactions were carried out in Buffer A (50 mM Hepes pH 7.5, 50 mM NaCl, 5 mM MgCl2, and 1 mM THP) in 96-well V-bottom plates. The compound titrations were performed in a separate dilution plate by serially diluting the compounds in DMSO to make a 100× stock. […] The compound and enzyme mixture was incubated for 15 min at rt, then 10 μL of 10× substrate and co-factors in Buffer A were added to the test well to make a final concentration of 1 μM NAM, […] 5-Phospho-D-ribose 1-diphosphate (PRPP), and 2.5 mM Adenosine 5′-triphosphate (ATP). The reaction was allowed to proceed for 30 min at rt, then was quenched with the addition of 11 μL of a solution of formic acid and L-Cystathionine to make a final concentration of 1% formic acid and 10 μM L-Cystathionine. Background and signal strength was determined by addition (or non-addition) of a serial dilution of NMN to a pre-quenched enzyme and cofactor mix.
Quantification of NMN. A mass spectrometry-based assay was used to measure the NAMPT reaction product, β-nicotinamide mononucleotide (NMN), and the internal control (L-Cystathionine). NMN and L-Cystathionine were detected using the services of Biocius Lifesciences with the RapidFire system. In short, the NMN and L-Cystathionine were bound to a graphitic carbon cartridge in 0.1% formic acid, eluted in 30% acetonitrile buffer, and injected into a Sciex 4000 mass spectrometer. The components of the sample were ionized with electrospray ionization and the positive ions were detected. […] The fragments are quantified and the analyzed by the following method.
Determination of IC50 Values. First, the NMN signal was normalized to the L-Cystathionine signal by dividing the NMN signal by the L-Cystathionine signal for each well. The signal from the background wells were averaged and subtracted from the test plates.

[1] = Homo sapiens, A2780, 72 h, read-out: Cell Proliferation (IC50)
[2] = read-out: Cell Proliferation (IC50), A2780 cells, 72 h, sulforhodamine B

Chain of NAMPT (P43490 whole entry): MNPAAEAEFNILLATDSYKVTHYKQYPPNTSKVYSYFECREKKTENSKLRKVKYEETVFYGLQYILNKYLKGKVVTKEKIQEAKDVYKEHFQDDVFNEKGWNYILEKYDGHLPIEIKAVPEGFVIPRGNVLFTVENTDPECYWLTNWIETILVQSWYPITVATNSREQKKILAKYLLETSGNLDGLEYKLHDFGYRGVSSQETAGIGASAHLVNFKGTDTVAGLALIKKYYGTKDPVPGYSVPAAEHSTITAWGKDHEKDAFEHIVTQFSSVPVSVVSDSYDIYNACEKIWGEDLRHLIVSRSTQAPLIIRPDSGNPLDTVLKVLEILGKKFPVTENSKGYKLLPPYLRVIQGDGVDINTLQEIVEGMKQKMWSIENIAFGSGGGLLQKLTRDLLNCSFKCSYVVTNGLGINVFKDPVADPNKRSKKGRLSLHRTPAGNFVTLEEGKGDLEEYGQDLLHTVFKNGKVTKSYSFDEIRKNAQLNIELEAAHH

| IC50 (A2780 cells; [1]) [nM] | IC50 (NAMPT) [nM] | IC50 (A2780 cells; Homo sapiens, A2780, 72 h, read-out: Cell Proliferation (IC50), A2780 cells, 72 h, sulforhodamine B) [nM] | IC50 (A2780 cells; [2]) [nM] | SMILES |
| --- | --- | --- | --- | --- |
| 9.1 | 19.1 |  |  | O=C(NCc1ccc(S(=O)(=O)c2cccc(C(F)(F)F)c2)cn1)c1cc2cnccc2[nH]1 [Example 17, 1H-Pyrrolo[3,2-c]pyridine-2-carboxylic acid [5-(3-trifluoromethyl-benzenesulfonyl)-pyridin-2-ylmethyl]-amide] |
| 7.3 | 9.1 |  |  | CN(C)c1ccc(S(=O)(=O)c2ccc(CNC(=O)c3ccc4nccn4c3)nc2)cn1 [Example 83, Imidazo[1,2-a]pyridine-6-carboxylic acid [5-(6-dimethylamino-pyridine-3-sulfonyl)-pyridin-2-ylmethyl]-amide] |
|  | 352 | 459 |  | O=C(NCc1ncc(S(=O)(=O)c2ccccc2)cn1)c1ccc2nccn2c1 [Example 8, Imidazo[1,2-a]pyridine-6-carboxylic acid (5-benzenesulfonyl-pyrimidin-2-ylmethyl)-amide] |
| 131 | 150 |  |  | O=C(NCc1ncc(S(=O)(=O)c2ccccc2)cn1)c1cc2cnccc2[nH]1 [Example 7, 1H-Pyrrolo[3,2-c]pyridine-2-carboxylic acid (5-benzenesulfonyl-pyrimidin-2-ylmethyl)-amide] |
| 1.9 | 2.6 |  |  | CN(C)c1ccc(S(=O)(=O)c2ccc(CNC(=O)c3cc4ccncc4o3)nc2)cn1 [Example 67, Furo[2,3-c]pyridine-2-carboxylic acid [5-(6-dimethylamino-pyridine-3-sulfonyl)-pyridin-2-ylmethyl]-amide] |
| 18.5 | 12.3 |  |  | O=C(NCc1ncc(S(=O)(=O)c2cccc(C(F)(F)F)c2)cn1)c1cc2ccncc2o1 [Example 81, Furo[2,3-c]pyridine-2-carboxylic acid [5-(3-trifluoromethyl-benzenesulfonyl)-pyrimidin-2-ylmethyl]-amide] |
| 7.3 | 19.3 |  |  | O=C(NCc1ccc(S(=O)(=O)c2ccc(N3CCOCC3)cc2)cn1)c1cnc2[nH]ncc2c1 [Example 31, 1H-Pyrazolo[3,4-b]pyridine-5-carboxylic acid [5-(4-morpholin-4-yl-benzenesulfonyl)-pyridin-2-ylmethyl]-amide] |
| 678 | 99.2 |  |  | Nc1ccc(S(=O)(=O)c2ccc(CNC(=O)N3Cc4ccncc4C3)nc2)cn1 [Example 150, N-[[5-[(6-amino-3-pyridyl)sulfonyl]-2-pyridyl]methyl]-1,3-dihydropyrrolo[3,4-c]pyridine-2-carboxamide] |
| 7.2 | 19 |  |  | O=C(NCc1ccc(S(=O)(=O)c2ccc(N3CCOCC3)nc2)cn1)c1cnc2[nH]ncc2c1 [Example 41, 1H-Pyrazolo[3,4-b]pyridine-5-carboxylic acid (5-(6-morpholin-4-yl-pyridine-3-sulfonyl)-pyridin-2-ylmethyl]-amide] |
| 54.6 | 55.2 |  |  | N#Cc1cccc(S(=O)(=O)c2ccc(CNC(=O)c3cc4ccncc4o3)nc2)c1 [Example 151, N-[[5-(3-cyanophenyl)sulfonyl-2-pyridyl]methyl]furo[2,3-c]pyridine-2-carboxamide] |
| 11.7 | 4.7 |  |  | O=C(NCc1ccc(S(=O)(=O)c2cccc(C(F)(F)F)c2)cn1)c1cnc2nccn2c1 [Example 18, Imidazo[1,2-a]pyrimidine-6-carboxylic acid (5-(3-trifluoromethyl-benzenesulfonyl)-pyridin-2-ylmethyl]-amide] |
|  | 20.1 |  | 19.6 | O=C(NCc1ccc([S+]([O-])c2cc(F)cc(F)c2)cn1)N1Cc2ccncc2C1 (single isomer, unassigned; enantiomer 2) [Example 160, N-[[5-(3,5-difluorophenyl)sulfinyl-2-pyridyl]methyl]-1,3-dihydropyrrolo[3,4-c]pyridine-2-carboxamide (enantiomer 2)] |
| 2.84 | 9.45 |  |  | O=C(NCc1ccc(S(=O)(=O)c2cnc(N3CCCC3)s2)cn1)c1cc2ccncc2o1 [Example 138, N-[[5-(2-pyrrolidin-1-ylthiazol-5-yl)sulfonyl-2-pyridyl]methyl]furo[2,3-c]pyridine-2-carboxamide] |
| 255 | 220 |  |  | O=C(NCc1ccc(S(=O)(=O)N2CCN(C3COC3)CC2)cn1)N1Cc2ccncc2C1 [Example 142, N-[[5-[4-(oxetan-3-yl)piperazin-1-yl]sulfonyl-2-pyridyl]methyl]-1,3-dihydropyrrolo[3,4-c]pyridine-2-carboxamide] |
|  | 36.5 |  | 51.3 | O=C(NCc1ccc([S+]([O-])c2cc(F)cc(F)c2)cn1)c1ccc2nccn2c1 (racemic) [Example 14, Imidazo[1,2-a]pyridine-6-carboxylic acid [5-(3,5-difluoro-benzenesulfinyl)-pyridin-2-ylmethyl)-amide (racemic)] |
|  | 15.9 |  | 41.9 | O=C(NCc1ccc([S+]([O-])c2cc(F)cc(F)c2)cn1)c1ccc2nccn2c1 (racemic) [Example 55, Imidazo[1,2-a]pyridine-6-carboxylic acid [5-(3,5-difluoro-benzenesulfinyl)-pyridin-2-ylmethyl]-amide (racemic)] |
| 18.9 | 13 |  |  | CS(=O)(=O)c1cccc(S(=O)(=O)c2ccc(CNC(=O)c3cc4ccncc4o3)nc2)c1 [Example 124, N-[[5-(3-methylsulfonylphenyl)sulfonyl-2-pyridyl]methyl]furo[2,3-c]pyridine-2-carboxamide] |
| 91 | 224 |  |  | O=C(NCc1ccc(S(=O)(=O)C2CCN(CC(F)(F)F)CC2)cn1)c1cc2cnccc2[nH]1 [Example 166, N-[[5-[[1-(2,2,2-trifluoroethyl)-4-piperidyl]sulfonyl)-2-pyridyl]methyl]-1H-pyrrolo[3,2-c]pyridine-2-carboxamide] |
| 116 | 67.9 |  |  | O=C(NCc1ccc(S(=O)(=O)C2CCN(C3COC3)CC2)cn1)N1Cc2ccncc2C1 [Example 104, 1,3-Dihydro-pyrrolo[3,4-c]pyridine-2-carboxylic acid [5-(1-oxetan-3-yl-piperidine-4-sulfonyl)-pyridin-2-ylmethyl]-amide] |
| 1.16 | 4.9 |  |  | CN(C)c1ncc(S(=O)(=O)c2ccc(CNC(=O)c3cc4ccncc4o3)nc2)s1 [Example 93, Furo[2,3-c]pyridine-2-carboxylic acid [5-(2-dimethylamino-thiazole-5-sulfonyl)-pyridin-2-ylmethyl]-amide] |
| 2000 | 562 |  |  | O=C(NCc1ccc(S(=O)(=O)N2CCCCC2)cn1)N1Cc2cn[nH]c2C1 [Example 180, N-[[5-(1-piperidylsulfonyl)-2-pyridyl]methyl]-4,6-dihydro-1H-pyrrolo[3,4-c]pyrazole-5-carboxamide] |
| 7.59 | 11.7 |  |  | O=C(NCc1ccc([S+]([O-])c2cccc(C(F)(F)F)c2)cn1)N1Cc2ccncc2C1 (stereo not drawn) [Example 120, N-[[5-[3-(trifluoromethyl)phenyl]sulfinyl-2-pyridyl]methyl]-1,3-dihydropyrrolo[3,4-c]pyridine-2-carboxamide] |
| 104 | 59.9 |  |  | COc1cccc(S(=O)(=O)c2ccc(CNC(=O)c3cnc4[nH]ncc4c3)nc2)c1 [Example 34, 1H-Pyrazolo[3,4-b]pyridine-5-carboxylic acid [5-(3-methoxy-benzenesulfonyl)-pyridin-2-ylmethyl]-amide] |
| 14.9 | 60.8 |  |  | O=C(NCc1ccc(S(=O)(=O)c2cncc(C(F)(F)F)c2)cn1)c1ccc2nccn2c1 [Example 168, N-[[5-[[5-(trifluoromethyl)-3-pyridyl]sulfonyl]-2-pyridyl]methyl]imidazo[1,2-a]pyridine-6-carboxamide] |
| 1200 | 54.7 |  |  | Cn1cc(S(=O)(=O)c2ccc(CNC(=O)N3Cc4ccncc4C3)nc2)cn1 [Example 99, 1,3-Dihydro-pyrrolo[3,4-c]pyridine-2-carboxylic acid [5-(1-methyl-1H-pyrazole-4-sulfonyl)-pyridin-2-ylmethyl]-amide] |
| 234 | 37.7 |  |  | Cc1ccc(S(=O)(=O)c2ccc(CNC(=O)c3cc4ccncc4s3)nc2)cn1 [Example 95, Thieno[2,3-c]pyridine-2-carboxylic acid [5-(6-methyl-pyridine-3-sulfonyl)-pyridin-2-ylmethyl]-amide] |
| 25.4 | 73 |  |  | O=C(NCc1ccc(S(=O)(=O)C2CCN(C3CCOC3)CC2)cn1)c1cc2ccncc2o1 (stereo not drawn) [Example 128, N-[[5-[(1-tetrahydrofuran-3-yl-4-piperidyl)sulfonyl]-2-pyridyl]methyl]furo[2,3-c]pyridine-2-carboxamide] |
